Results reported in ChEMBL document CHEMBL5678803, “Selective blockade of TRPA1 channel attenuates pathological pain without altering noxious cold sensation or body temperature regulation” (Pain, 2011).
Calls of active or inactive are those of the source. The calls are words filed in the database; no cut-off is given here.

What was measured:
Rattus norvegicus [1] = assay: Antiallodynic activity in CFA-induced mechanical allodynia Sprague-Dawley rat model assessed as attenuation of mechanical allodynia at 6.2 to 62.1 mg/kg, po administered with compound for 1 hrs and measured 48 hrs after CFA injection; format: functional, organism-based; settings: dose 6.2-62.1 mg/kg, time 49.0 hrs
[2] = molecular target: Sodium-dependent dopamine transporter (Homo sapiens) (UniProt Q01959); assay: Inhibition of dopamine transporter (unknown origin) at 10 micromol/L by radioligand binding assay; settings: dose 10.0 µmol/L
[3] = molecular target: Transient receptor potential cation channel subfamily A member 1 (Rattus norvegicus) (UniProt Q6RI86); assay: Antagonist activity at endogenous TRPA1 in rat DRG neurons assessed as blockade of bradykinin-induced CGRP release at 5 micromol/L; format: cell-based; settings: DRG neuron, filed as antagonist, dose 5.0 µmol/L
[4] = molecular target: Transient receptor potential cation channel subfamily V member 1 (Homo sapiens, UniProt Q8NER1); assay: Antagonist activity at human TRPV1 expressed in HEK293F cells assessed as inhibition of capsaicin-induced TRPV1 channel activation by FLIPR-based Ca2+ assay relative to control; format: cell-based; settings: concentration not given here
Rattus norvegicus [5] = assay: Antiallodynic activity in acetone-induced CCI Sprague-Dawley rat model assessed as attenuation of acetone induced cold allodynia at 62.1 mg/kg, po measured after 1 hrs relative to control; format: functional
[6] = molecular target: Melatonin receptor type 1A (Homo sapiens) (UniProt P48039); assay: Inhibition of MT1 receptor (unknown origin) at 10 micromol/L by radioligand binding assay; settings: dose 10.0 µmol/L
[7] = molecular target: Transient receptor potential cation channel subfamily V member 4 (Homo sapiens, UniProt Q9HBA0); assay: Antagonist activity at human TRPV4 expressed in HEK293F cells assessed as inhibition of mOsmo-induced TRPV4 channel activation by FLIPR-based Ca2+ assay relative to control; format: cell-based; settings: concentration not given here
[8] = Toxicity in Sprague-Dawley rat assessed as effect on mean arterial pressure; settings: in vivo
[9] = molecular target: Transient receptor potential cation channel subfamily M member 8 (Homo sapiens, UniProt Q7Z2W7); assay: Antagonist activity at human TRPM8 expressed in HEK293F cells assessed as inhibition of menthol-induced increase in intracellular Ca2+ level by FLIPR-based Ca2+ assay; format: cell-based
[10] = molecular target: Transient receptor potential cation channel subfamily A member 1 (Rattus norvegicus, UniProt Q6RI86); assay: Antagonist activity at rat TRPA1 expressed in HEK293F cells assessed as reduction in AITC-induced increase in intracellular Ca2+ level by FLIPR-based Ca2+ assay; format: cell-based
[11] = Toxicity in Sprague-Dawley rat assessed as effect on heart rate; settings: in vivo
[12] = molecular target: Transient receptor potential cation channel subfamily A member 1 (Rattus norvegicus) (UniProt Q6RI86); assay: Antagonist activity at endogenous TRPA1 in rat DRG neurons assessed as blockade of AITC-induced CGRP release at 5 micromol/L; format: cell-based; settings: DRG neuron, filed as antagonist, dose 5.0 µmol/L
[13] = molecular target: T1, Transient receptor potential cation channel subfamily V member 3 (Homo sapiens, UniProt Q8NET8); assay: Antagonist activity at endogenous TRPV3 in human epithelial cells assessed as inhibition of 2APB-induced increase in intracellular Ca2+ level by FLIPR-based Ca2+ assay; format: cell-based, Epithelial cell
T1 sequence (Q8NET8 whole entry): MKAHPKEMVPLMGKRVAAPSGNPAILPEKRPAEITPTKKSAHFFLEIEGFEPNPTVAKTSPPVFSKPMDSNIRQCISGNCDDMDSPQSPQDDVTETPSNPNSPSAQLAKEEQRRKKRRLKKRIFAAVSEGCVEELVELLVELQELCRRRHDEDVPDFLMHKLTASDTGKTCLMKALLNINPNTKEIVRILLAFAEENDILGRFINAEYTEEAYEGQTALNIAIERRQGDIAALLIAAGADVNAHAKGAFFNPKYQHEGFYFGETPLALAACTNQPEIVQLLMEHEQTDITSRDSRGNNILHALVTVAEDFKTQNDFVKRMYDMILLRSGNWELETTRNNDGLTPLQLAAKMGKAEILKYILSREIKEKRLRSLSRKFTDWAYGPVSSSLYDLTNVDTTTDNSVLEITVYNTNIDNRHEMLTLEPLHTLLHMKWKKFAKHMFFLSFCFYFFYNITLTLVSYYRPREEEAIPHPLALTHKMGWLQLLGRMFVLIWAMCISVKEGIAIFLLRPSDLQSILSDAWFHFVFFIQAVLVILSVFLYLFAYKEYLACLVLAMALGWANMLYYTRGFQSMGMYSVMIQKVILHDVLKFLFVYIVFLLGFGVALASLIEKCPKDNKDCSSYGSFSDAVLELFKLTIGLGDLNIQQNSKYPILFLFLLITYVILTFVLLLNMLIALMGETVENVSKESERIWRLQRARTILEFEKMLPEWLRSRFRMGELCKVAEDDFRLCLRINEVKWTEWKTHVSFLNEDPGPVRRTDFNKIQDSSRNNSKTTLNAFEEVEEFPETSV

[14] = Drug concentration in rat at 20.7 mg/kg, po measured after 60 mins; format: ADME, organism-based; settings: in vivo, read-out: Drug uptake
[15] = Aqueous solubility of compound; format: physicochemical; settings: buffer
[16] = Toxicity in Sprague-Dawley rat assessed as effect on tail withdrawal latency to hot water immersion at 55 degreeC at 62.1 mg/kg, po by tail immersion test; format: organism-based; settings: in vivo

Chain of Transient receptor potential cation channel subfamily A member 1 (Rattus norvegicus) (Q6RI86 whole entry): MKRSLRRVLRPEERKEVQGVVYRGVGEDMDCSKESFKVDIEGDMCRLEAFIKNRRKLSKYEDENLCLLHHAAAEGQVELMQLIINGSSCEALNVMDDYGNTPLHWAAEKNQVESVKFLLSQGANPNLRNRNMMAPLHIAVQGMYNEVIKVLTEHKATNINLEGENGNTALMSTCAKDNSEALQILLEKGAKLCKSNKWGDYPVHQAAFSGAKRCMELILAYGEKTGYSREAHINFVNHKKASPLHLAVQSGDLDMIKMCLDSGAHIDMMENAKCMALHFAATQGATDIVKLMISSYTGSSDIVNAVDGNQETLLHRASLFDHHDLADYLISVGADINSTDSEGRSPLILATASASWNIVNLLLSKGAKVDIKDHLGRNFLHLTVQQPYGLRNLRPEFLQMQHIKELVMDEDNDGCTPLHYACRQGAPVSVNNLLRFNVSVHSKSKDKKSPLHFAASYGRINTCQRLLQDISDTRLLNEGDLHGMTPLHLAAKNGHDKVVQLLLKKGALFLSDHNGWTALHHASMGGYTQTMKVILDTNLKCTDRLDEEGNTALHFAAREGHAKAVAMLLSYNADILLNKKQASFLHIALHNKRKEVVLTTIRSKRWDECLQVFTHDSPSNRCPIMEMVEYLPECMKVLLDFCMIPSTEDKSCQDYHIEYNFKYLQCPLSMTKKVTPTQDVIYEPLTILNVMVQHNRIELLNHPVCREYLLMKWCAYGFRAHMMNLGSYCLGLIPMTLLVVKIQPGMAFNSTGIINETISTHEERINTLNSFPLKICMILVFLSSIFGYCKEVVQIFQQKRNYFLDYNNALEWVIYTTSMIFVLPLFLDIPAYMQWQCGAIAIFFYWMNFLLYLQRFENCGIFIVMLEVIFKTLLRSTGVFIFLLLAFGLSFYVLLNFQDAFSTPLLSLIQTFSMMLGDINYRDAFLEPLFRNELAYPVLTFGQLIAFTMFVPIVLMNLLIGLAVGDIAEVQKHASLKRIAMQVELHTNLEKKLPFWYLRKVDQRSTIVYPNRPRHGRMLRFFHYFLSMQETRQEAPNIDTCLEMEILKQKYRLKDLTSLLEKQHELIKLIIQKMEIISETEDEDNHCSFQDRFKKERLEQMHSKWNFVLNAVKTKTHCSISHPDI
Chain of Sodium-dependent dopamine transporter (Homo sapiens) (Q01959 whole entry): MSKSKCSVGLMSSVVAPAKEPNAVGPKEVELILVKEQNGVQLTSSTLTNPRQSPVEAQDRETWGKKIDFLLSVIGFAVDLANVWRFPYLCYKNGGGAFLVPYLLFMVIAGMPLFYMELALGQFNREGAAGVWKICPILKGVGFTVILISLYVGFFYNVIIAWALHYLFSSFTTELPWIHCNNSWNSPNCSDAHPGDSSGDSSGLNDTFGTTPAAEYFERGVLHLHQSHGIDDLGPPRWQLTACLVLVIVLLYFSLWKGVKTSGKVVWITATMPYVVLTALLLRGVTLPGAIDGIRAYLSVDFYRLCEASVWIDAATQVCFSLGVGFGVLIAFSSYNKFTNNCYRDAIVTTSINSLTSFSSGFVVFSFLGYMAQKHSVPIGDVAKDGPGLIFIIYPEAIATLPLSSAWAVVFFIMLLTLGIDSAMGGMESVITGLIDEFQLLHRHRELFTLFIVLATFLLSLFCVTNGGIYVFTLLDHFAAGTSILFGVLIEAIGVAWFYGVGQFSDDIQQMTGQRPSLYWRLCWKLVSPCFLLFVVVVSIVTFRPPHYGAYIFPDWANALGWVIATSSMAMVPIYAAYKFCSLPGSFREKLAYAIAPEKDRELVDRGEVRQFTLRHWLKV
Chain of Transient receptor potential cation channel subfamily M member 8 (Q7Z2W7 whole entry): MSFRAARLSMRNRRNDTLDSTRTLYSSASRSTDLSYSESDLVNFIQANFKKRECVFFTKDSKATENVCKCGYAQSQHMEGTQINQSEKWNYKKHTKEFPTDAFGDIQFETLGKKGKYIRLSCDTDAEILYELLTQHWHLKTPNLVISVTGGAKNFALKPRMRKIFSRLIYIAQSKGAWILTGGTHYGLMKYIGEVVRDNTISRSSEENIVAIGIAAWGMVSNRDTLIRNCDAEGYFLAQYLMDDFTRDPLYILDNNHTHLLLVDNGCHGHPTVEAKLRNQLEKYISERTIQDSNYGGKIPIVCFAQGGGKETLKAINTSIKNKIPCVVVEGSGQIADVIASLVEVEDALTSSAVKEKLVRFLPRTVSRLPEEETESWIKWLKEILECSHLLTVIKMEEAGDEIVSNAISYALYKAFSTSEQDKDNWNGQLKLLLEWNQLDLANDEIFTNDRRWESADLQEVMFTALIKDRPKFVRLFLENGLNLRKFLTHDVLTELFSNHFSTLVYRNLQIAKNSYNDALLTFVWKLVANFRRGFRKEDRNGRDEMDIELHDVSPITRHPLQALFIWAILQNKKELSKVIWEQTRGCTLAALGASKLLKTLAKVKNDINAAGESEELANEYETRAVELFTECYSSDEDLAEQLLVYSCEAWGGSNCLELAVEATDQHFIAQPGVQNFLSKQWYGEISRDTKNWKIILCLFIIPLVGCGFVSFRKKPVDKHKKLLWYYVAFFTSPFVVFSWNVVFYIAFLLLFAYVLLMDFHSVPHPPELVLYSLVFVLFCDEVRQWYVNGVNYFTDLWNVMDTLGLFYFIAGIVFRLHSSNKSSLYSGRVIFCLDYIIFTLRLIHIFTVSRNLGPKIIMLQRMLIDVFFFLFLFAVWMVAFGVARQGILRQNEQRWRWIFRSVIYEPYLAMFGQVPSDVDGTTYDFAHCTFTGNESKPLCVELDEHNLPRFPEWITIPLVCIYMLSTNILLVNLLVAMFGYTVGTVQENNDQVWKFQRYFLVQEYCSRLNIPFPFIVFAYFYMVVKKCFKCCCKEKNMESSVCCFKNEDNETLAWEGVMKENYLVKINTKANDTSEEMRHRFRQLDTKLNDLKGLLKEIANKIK
Chain of Melatonin receptor type 1A (Homo sapiens) (P48039 whole entry): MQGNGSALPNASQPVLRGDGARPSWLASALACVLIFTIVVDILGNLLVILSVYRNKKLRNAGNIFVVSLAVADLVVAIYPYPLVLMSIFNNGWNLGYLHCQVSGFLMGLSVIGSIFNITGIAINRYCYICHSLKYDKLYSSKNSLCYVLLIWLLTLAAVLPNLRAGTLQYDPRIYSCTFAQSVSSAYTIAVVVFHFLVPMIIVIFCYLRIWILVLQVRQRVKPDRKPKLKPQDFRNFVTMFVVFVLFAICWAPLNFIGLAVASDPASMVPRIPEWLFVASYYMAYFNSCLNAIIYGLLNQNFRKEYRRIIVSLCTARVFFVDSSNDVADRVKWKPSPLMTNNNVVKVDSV
Chain of Transient receptor potential cation channel subfamily V member 4 (Q9HBA0 whole entry): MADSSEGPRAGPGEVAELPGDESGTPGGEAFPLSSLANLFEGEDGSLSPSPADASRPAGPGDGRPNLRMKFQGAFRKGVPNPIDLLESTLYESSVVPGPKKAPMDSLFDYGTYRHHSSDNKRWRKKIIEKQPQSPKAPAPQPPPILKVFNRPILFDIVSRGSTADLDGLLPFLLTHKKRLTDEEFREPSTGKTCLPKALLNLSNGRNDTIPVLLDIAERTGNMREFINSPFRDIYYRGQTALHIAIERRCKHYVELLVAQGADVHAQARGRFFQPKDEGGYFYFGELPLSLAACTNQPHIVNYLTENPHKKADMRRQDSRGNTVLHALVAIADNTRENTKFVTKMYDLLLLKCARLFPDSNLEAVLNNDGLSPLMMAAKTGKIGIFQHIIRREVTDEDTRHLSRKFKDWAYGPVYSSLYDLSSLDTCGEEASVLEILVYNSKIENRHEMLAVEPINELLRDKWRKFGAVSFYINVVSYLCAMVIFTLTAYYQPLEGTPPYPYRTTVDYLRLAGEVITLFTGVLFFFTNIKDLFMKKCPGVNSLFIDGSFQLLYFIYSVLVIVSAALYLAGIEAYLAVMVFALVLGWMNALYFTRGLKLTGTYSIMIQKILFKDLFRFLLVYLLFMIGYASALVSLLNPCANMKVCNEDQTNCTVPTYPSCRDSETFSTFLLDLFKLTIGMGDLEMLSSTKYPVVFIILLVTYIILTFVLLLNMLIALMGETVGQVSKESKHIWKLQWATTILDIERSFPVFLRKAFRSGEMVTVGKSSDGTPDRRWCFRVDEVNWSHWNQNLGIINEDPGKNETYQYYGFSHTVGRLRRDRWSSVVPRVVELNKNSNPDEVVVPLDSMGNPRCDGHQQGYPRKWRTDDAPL
Chain of Transient receptor potential cation channel subfamily V member 1 (Q8NER1 whole entry): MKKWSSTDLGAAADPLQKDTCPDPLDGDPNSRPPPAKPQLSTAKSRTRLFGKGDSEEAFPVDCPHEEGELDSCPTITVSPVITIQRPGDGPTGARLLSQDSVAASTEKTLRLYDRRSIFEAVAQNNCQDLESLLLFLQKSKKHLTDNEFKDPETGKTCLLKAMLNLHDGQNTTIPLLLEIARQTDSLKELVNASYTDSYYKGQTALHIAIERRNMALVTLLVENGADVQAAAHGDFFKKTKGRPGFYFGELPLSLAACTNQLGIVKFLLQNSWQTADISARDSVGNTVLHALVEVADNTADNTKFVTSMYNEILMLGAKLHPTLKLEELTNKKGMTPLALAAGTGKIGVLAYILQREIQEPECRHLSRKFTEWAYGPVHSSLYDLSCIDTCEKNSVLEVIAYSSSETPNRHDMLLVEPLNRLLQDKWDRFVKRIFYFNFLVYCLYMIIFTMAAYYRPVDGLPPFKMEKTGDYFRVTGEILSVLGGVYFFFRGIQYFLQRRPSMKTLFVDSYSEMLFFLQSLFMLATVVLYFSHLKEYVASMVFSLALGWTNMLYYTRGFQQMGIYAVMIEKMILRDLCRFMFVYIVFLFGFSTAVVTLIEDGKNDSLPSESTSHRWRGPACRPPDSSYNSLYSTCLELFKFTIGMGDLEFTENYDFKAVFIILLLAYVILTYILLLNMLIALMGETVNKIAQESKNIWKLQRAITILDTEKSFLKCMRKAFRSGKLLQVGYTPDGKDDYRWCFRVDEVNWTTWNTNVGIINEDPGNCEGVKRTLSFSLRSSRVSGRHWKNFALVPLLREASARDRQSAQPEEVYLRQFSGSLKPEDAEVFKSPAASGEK
Chain of Transient receptor potential cation channel subfamily A member 1 (Q6RI86 whole entry): as the sequence (Q6RI86 whole entry) above

What does the source list for `CCC(=N\O)/C(C)=C/c1ccc(F)cc1` [A-079]?
Activity (Rattus norvegicus [1]): inactive; inhibition [2]: 43%; Activity [3]: Active; inhibition [4]: < 20%; Activity (Rattus norvegicus [5]): 46.4%; inhibition [6]: 31%; inhibition [7]: < 20%; Activity [8]: Non-Toxic; IC50 [9]: > 100 µM; IC50 [10]: 0.289 µM; Activity [11]: Non-Toxic; Activity [12]: Active; IC50 [13]: > 100 µM; concentration at 1 h [14]: 6.22 µM; solubility [15]: > 300 µM; Activity [16]: Non-Toxic
